Test results taken from patent US9839642B2, “Beta-tetrazolyl-propionic acids as metallo-beta-lactamase inhibitors” (priority 2014, dated 2017).

How the values were obtained:
IMP-1 = IMP-1 (Serratia marcescens, UniProt P52699); test: Enzyme activity: determination of IC50, fluorescence assay with CCF2-FA substrate; format: biochemical; details: IMP-1 enzyme 2 pM, CCF2-FA 1.25 μM, 2 hours at 25° C.; read-out: IMP1 IC50
Outline: (§1)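 Enzyme (1 pM NDM-1, 2 pM IMP-1, 30 pM VIM-1) incubated with inhibitor (20 to 0.00063 μM) and 1.25 μM CCF2-FA in 100 mM KH2PO4 pH 7, 0.005% Tween-20, 10 μM ZnSO4, 2 h at 25 °C. Fluorescence read at 460 nm (ex 405 nm); IC50 by 4-parameter fit.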

NDM-1 = NDM-1 (Klebsiella pneumoniae, UniProt C7C422); test: as above; format: biochemical; details: NDM-1 enzyme 1 pM, CCF2-FA 1.25 μM, 2 hours at 25° C.; read-out: NDM1 IC50
Outline: as §1

VIM-1 = VIM-1 (Pseudomonas aeruginosa, UniProt A0A0F7KYQ8); test: as above; format: biochemical; details: VIM-1 enzyme 30 pM, CCF2-FA 1.25 μM, 2 hours at 25° C.; read-out: VIM1 IC50
Outline: as §1

[1] = system: Escherichia coli expressing NDM-1 (CLB30016); test: Antibiotic potentiation activity: synergistic concentration (MITC95) with imipenem, growth by OD600; format: cell-based; details: E. coli CLB30016 (NDM-1), 95% inhibition of growth
Outline: (§2)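 Strains grown overnight at 35° C, resuspended in saline, diluted 1:100 into 1.1×CAMHB; imipenem at 1 μg/ml or 4 μg/ml with test compound 200 μM to 0.195 μM. Incubated 22 hours to 24 hours at 35° C, OD600 read; MITC95 is lowest compound concentration inhibiting 95% of growth.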

[2] = system: Klebsiella pneumoniae expressing VIM-1 (IHMA599644); test: as above; format: cell-based; details: K. pneumoniae IHMA599644 (VIM-1), 95% inhibition of growth
Outline: as §2

[3] = system: Serratia marcescens expressing IMP-1 (CL5741); test: as above; format: cell-based; details: S. marcescens CL5741 (IMP-1), 95% inhibition of growth
Outline: as §2

NDM-1, sequence (C7C422 29-270, looked up, species assumed): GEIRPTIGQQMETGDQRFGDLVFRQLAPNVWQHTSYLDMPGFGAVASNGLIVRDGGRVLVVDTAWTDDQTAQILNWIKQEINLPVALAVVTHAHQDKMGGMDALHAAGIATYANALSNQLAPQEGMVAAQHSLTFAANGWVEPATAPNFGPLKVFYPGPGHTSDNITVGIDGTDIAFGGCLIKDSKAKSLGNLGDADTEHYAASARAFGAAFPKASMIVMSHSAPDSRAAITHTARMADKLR
IMP-1, sequence (P52699 19-246, looked up, species assumed): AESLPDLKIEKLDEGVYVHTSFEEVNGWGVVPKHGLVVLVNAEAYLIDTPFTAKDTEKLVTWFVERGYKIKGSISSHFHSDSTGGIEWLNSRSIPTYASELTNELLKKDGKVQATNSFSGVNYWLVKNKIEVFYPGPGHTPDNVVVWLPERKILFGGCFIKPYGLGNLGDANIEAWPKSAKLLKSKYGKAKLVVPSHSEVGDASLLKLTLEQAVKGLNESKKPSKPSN

SMILES	IC50 (IMP-1) [nM]	IC50 (NDM-1) [nM]	IC50 (VIM-1) [nM]	NDM1 EC30016 MITC95 [1] [µM]	VIM1 KP599644 MITC95 [2] [µM]	IMP1 SM5741 MITC95 [3] [µM]
CCC[C@H](C(=O)O)[C@H](Cc1ccc(F)cc1F)c1nnn[nH]1 [Example 262, (2S)-2-[(1S)-2-(2,4-difluorophenyl)-1-(1H-tetrazol-5-yl)ethyl]pentanoic acid]	1300	70	3.1	6.2	12.5	18.8
CCC[C@H](C(=O)O)[C@H](Cc1ccc(Cl)cc1)c1nnn[nH]1 [Example 263, (2S)-2-[(1S)-2-(4-chlorophenyl)-1-(1H-tetrazol-5-yl)ethyl]pentanoic acid]	430	57	2.4	9.4	9.4	12.5
CCC[C@H](C(=O)O)[C@H](Cc1cccnc1)c1nnn[nH]1 [Example 264, (S)-2-((S)-2-(pyridin-3-yl)-1-(1H-tetrazol-5-yl)ethyl)pentanoic acid]	7100	370	16	2.3	18.8	100
CCC[C@H](C(=O)O)[C@H](C[C@@H](C)c1ccccc1)c1nnn[nH]1 [Example 265, (2S,3S,5R)-5-phenyl-2-propyl-3-(1H-tetrazol-5-yl)hexanoic acid]	1800	130	24	18.8	75	50
CCC[C@H](C(=O)O)[C@H](CCc1ccccc1)c1nnn[nH]1 [Example 266, (2S,3S)-5-phenyl-2-propyl-3-(1H-tetrazol-5-yl)pentanoic acid]	1000	190	20	12.5	25	38
CCC[C@H](C(=O)O)[C@H](Cc1cc(C(F)(F)F)cc(C(F)(F)F)c1)c1nnn[nH]1 [Example 269, (2S)-2-[(1S)-2-[3,5-bis(trifluoromethyl)phenyl]-1-(1H-tetrazol-5-yl)ethyl]pentanoic acid]	1500	36	0.76	18.8	38	38
CCC[C@H](C(=O)O)[C@H](Cc1ccc2nsnc2c1)c1nnn[nH]1 [Example 271, (2S)-2-[(1S)-2-(2,1,3-benzothiadiazol-5-yl)-1-(1H-tetrazol-5-yl)ethyl]pentanoic acid]	650	84	1.1	6.2	12.5	50
CCC[C@H](C(=O)O)[C@H](Cc1cccc2nsnc12)c1nnn[nH]1 [Example 272, (2S)-2-[(1S)-2-(2,1,3-benzothiadiazol-4-yl)-1-(1H-tetrazol-5-yl)ethyl]pentanoic acid]	600	12	0.35	4.7	9.4	38
CCC[C@H](C(=O)O)[C@H](Cc1ccc2nonc2c1)c1nnn[nH]1 [Example 273, (2S)-2-[(1S)-2-(2,1,3-benzoxadiazol-5-yl)-1-(1H-tetrazol-5-yl)ethyl]pentanoic acid]	2200	260	1.9	12.5	9.4	150
CCC[C@H](C(=O)O)[C@H](Cc1ccc(C(=O)N2CCNCC2)cc1)c1nnn[nH]1 [Example 275, (2S)-2-[(1S)-2-[4-(piperazin-1-ylcarbonyl)phenyl]-1-(1H-tetrazol-5-yl)ethyl]pentanoic acid]	520	39	41	9.4	38	25
CCC[C@H](C(=O)O)[C@H](Cc1ccc(C(=O)NCCN)cc1)c1nnn[nH]1 [Example 276, (2S)-2-[(1S)-2-{4-[(2-aminoethyl)carbamoyl]phenyl}-1-(1H-tetrazol-5-yl)ethyl]pentanoic acid]	5400	1100	8.4	12.5	25	100
CCC[C@H](C(=O)O)[C@H](Cc1ccc(C(=O)N(C)C)cc1)c1nnn[nH]1 [Example 277, (2S)-2-[(1S)-2-[4-(dimethylcarbamoyl)phenyl]-1-(1H-tetrazol-5-yl)ethyl]pentanoic acid]	130	10	13	25	75	12.5
CCC[C@H](C(=O)O)[C@H](Cc1ccc(C(=O)N2CCC(N)CC2)cc1)c1nnn[nH]1 [Example 278, (2S)-2-[(1S)-2-{4-[(4-aminopiperidin-1-yl)carbonyl]phenyl}-1-(1H-tetrazol-5-yl)ethyl]pentanoic acid]	200	10	120	12.5	50	6.2
CCC[C@H](C(=O)O)[C@H](Cc1ccc(C(=O)NC)cc1)c1nnn[nH]1 [Example 279, (2S)-2-[(1S)-2-[4-(methylcarbamoyl)phenyl]-1-(1H-tetrazol-5-yl)ethyl]pentanoic acid]	9500	1000	100	150	>200	>200
CCC[C@H](C(=O)O)[C@H](Cc1ccc(C(=O)NCCO)cc1)c1nnn[nH]1 [Example 280, (2S)-2-[(1S)-2-{4-[(2-hydroxyethyl)carbamoyl]phenyl}-1-(1H-tetrazol-5-yl)ethyl]pentanoic acid]	880	140	2.7	18.8	25	25
CCC[C@H](C(=O)O)[C@H](Cc1ccc(C(=O)NC2CC2)cc1)c1nnn[nH]1 [Example 281, (2S)-2-[(1S)-2-[4-(cyclopropylcarbamoyl)phenyl]-1-(1H-tetrazol-5-yl)ethyl]pentanoic acid]	5300	770	86	100	200	200
CCC[C@H](C(=O)O)[C@H](Cc1ccc(C(=O)NCC2CC2)cc1)c1nnn[nH]1 [Example 282, (2S)-2-[(1S)-2-{4-[(cyclopropylmethyl)carbamoyl]phenyl}-1-(1H-tetrazol-5-yl)ethyl]pentanoic acid]	730	98	19	18.8	50	50
CCC[C@H](C(=O)O)[C@H](Cc1ccc(C(=O)O)cc1)c1nn[nH]n1 [Example 283, 4-((2S,3S)-3-carboxy-2-(2H-tetrazol-5-yl)hexyl)benzoic acid]	850	50	17	100	200	38
CCC[C@H](C(=O)O)[C@H](Cc1nnc(N)s1)c1nnn[nH]1 [Example 284, (S)-2-((S)-2-(5-amino-1,3,4-thiadiazol-2-yl)-1-(1H-tetrazol-5-yl)ethyl)pentanoic acid]	> 20000	13000	340	25	38	>200
CCC[C@H](C(=O)O)[C@H](Cc1cnc(SC)nc1)c1nnn[nH]1 [Example 285, (S)-2-((S)-2-(2-(methylthio)pyrimidin-5-yl)-1-(1H-tetrazol-5-yl)ethyl)pentanoic acid]	14000	190	3.3	25	25	>200
CCC[C@H](C(=O)O)[C@H](Cc1cnc(S(C)(=O)=O)nc1)c1nnn[nH]1 [Example 286, (S)-2-((S)-2-(2-(methylsulfonyl)pyrimidin-5-yl)-1-(1H-tetrazol-5-yl)ethyl)pentanoic acid]	> 20000	4600	37	25	18.8	>200
CCC[C@H](C(=O)O)[C@H](Cc1cnc(N2CCOCC2)nc1)c1nnn[nH]1 [Example 287, (S)-2-((S)-2-(2-morpholinopyrimidin-5-yl)-1-(1H-tetrazol-5-yl)ethyl)pentanoic acid]	9200	100	5	25	50	75
